pIC50: −log10 of the molar value. Converted amounts (≈) assume the structure as drawn.
Experiments:
[1] = Antioxidant activity assessed as inhibition of superoxide anion radical formation after 5 mins in presence of PMS and NADH by nitroblue tetrazolium method relative to control; assay type: functional
[2] = system: Mycobacterium tuberculosis; test: Antimycobacterial activity against Mycobacterium tuberculosis; assay type: functional
[3] = system: Mycobacterium tuberculosis; test: Growth inhibition of Mycobacterium tuberculosis relative to control; assay type: functional
[4] = Antioxidant activity assessed as inhibition of ABTS radical formation relative to control; assay type: functional; set-up: concentration or dose not given beside the values; settings: dose or concentration not given here
NCI-H460 [5] = test: Growth inhibition of human NCI-H460 cells; assay type: functional, cell-based
SF-268 [6] = test: Growth inhibition of human SF268 cells; assay type: functional, cell-based
MCF7 [7] = test: Growth inhibition of human MCF7 cells; assay type: functional, cell-based
Staphylococcus aureus [8] = test: Antibacterial activity against Staphylococcus aureus ATCC 25923 at 40 ug/ml after 48 hrs by filter paper disc method; assay type: functional; settings: ATCC 25923, 48 h, read-out: IZ
[9] = system: Mycobacterium tuberculosis; test: Antimycobacterial activity against Mycobacterium tuberculosis H37Rv ATCC 25618 after 5 days; assay type: functional; settings: H37Rv ATCC 25618, 120 h
Bacillus spizizenii = test: Antibacterial activity against Bacillus subtilis ATCC 6633 at 1000 ug/ml after 48 hrs by filter paper disc method; assay type: functional; settings: ATCC 6633, 48 h, read-out: IZ
Aspergillus niger = test: Antifungal activity against Aspergillus niger at 1000 ug/ml after 48 hrs by filter paper disc method; assay type: functional; settings: read-out: IZ
Streptococcus pneumoniae = test: Antibacterial activity against Streptococcus pneumoniae at 1000 ug/ml after 48 hrs by filter paper disc method; assay type: functional; settings: read-out: IZ
Rattus norvegicus = test: Anti-inflammatory activity in rat assessed as inhibition of cotton pellet-induced granuloma at 100 mg/kg relative to control; assay type: functional
MCF7 [10] = test: Growth inhibition of human MCF7 cells after 48 hrs by SRB assay; assay type: functional, cell-based; settings: MCF7, 48 h
NCI-H460 [11] = test: Growth inhibition of human NCI-H460 cells after 48 hrs by SRB assay; assay type: functional, cell-based; settings: NCI-H460, 48 h
SF-268 [12] = test: Growth inhibition of human SF268 cells after 48 hrs by SRB assay; assay type: functional, cell-based; settings: SF-268, 48 h
Tubulin = test: Inhibition of tubulin polymerization (unknown origin); assay type: protein-complex assay, Homo sapiens
Candida = test: Antifungal activity against Candida pannical at 1000 ug/ml after 48 hrs by filter paper disc method; assay type: functional; settings: read-out: IZ
[13] = biological target: T1, Peroxisome proliferator-activated receptor gamma (Homo sapiens) (UniProt P37231); test: Transactivation of GAL4 DBD-fused human PPARgamma LBD (174 to 475 residues) expressed in human HepG2 cells harboring pGL3-promoter-GAL4 at 28 uM after 24 hrs by luciferase reporter gene assay relative to control; assay type: cell-based
T1 sequence (whole entry): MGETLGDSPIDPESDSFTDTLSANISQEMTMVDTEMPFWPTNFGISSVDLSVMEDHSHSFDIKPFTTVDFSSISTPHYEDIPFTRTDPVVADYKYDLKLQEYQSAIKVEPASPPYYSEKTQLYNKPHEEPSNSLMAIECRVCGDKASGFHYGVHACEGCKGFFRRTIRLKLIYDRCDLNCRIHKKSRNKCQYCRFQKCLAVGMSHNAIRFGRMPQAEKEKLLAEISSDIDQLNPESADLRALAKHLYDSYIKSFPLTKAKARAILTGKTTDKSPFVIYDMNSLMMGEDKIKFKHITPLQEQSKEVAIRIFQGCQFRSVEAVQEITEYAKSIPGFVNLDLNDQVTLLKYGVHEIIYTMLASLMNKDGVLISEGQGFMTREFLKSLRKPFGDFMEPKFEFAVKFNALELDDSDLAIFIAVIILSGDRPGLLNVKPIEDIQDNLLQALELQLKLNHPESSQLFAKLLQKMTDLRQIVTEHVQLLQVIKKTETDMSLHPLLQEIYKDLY

Staphylococcus aureus [14] = test: Antibacterial activity against Staphylococcus aureus ATCC 25923 at 1000 ug/ml after 48 hrs by filter paper disc method; assay type: functional; settings: ATCC 25923, 48 h, read-out: IZ

CCOC(=O)CSC(SCC(=O)OCC)=C(C#N)C(=O)Nc1sc2c(c1C(=O)OCC)CCCC2
inhibition [1]: 58.9%

O=C(NN1C(=O)/C(=C/c2cccc(Br)c2)N=C1c1ccccc1)c1sc2ccc(Cl)cc2c1Cl
MIC [2]: > 6.25 mg/L | growth inhibition (GI) [3]: 67%

CCOC(=O)C1=C(NNC2=C(O)C(=O)c3ccccc3C2=O)SC2CCCCC12 (configuration not stated)
inhibition [4]: 98.9%

CCOC(=O)C1=C(NCC2=C(O)C(=O)c3ccccc3C2=O)SC2CCCCC12 (configuration not stated)
inhibition [4]: 63.2%

N#Cc1c(/N=C/n2nc(N)cc2O)sc2c1CCCC2
pIC50 (NCI-H460 [5]): 7.10 | pIC50 (SF-268 [6]): 7.22 | pIC50 (MCF7 [7]): 7.70

O=C(NNc1ccc(F)cc1)Nc1sc2ccccc2c1Cl
zone of inhibition at 40 µg/mL (Staphylococcus aureus [8]): 15 to 16 mm

CCOC(=O)c1c(NC2=CC(=O)C(=O)c3ccccc32)sc2c1CCCC2
inhibition [4]: 65.6%

CCOC(=O)c1c(NC(=O)c2c(NC(=O)CC#N)sc3c2CCC3)sc2c1CCCC2
inhibition [1]: 61.4%

O=C(Nn1c(-c2ccccc2[N+](=O)[O-])nc2ccccc2c1=O)c1sc2ccccc2c1Cl
MIC [2]: 12.5 mg/L (≈ 26.2 µM)

Cc1ccccc1Nc1nnc(NC(=O)c2cc3cc(Oc4ccccc4)ccc3s2)s1
MIC [2]: > 6.25 mg/L | growth inhibition (GI) [3]: 60%

Cn1nnnc1SC1=CS(=O)(=O)c2ccccc21
MIC99 [9]: 2.6 µM (≈ 0.729 µg/mL)

COc1cc(OC)c2ccc(=O)n(NC(=O)c3sc4cc(F)ccc4c3N)c2c1
zone of inhibition at 1000 µg/mL (Bacillus spizizenii): 23 mm | zone of inhibition at 1000 µg/mL (Aspergillus niger): 26 mm | zone of inhibition at 40 µg/mL (Staphylococcus aureus [8]): 24 mm | zone of inhibition at 1000 µg/mL (Streptococcus pneumoniae): 20 mm

CCOC(=O)c1c(/N=C/n2nc(N)cc2O)sc2c1CCCC2
pIC50 (NCI-H460 [5]): 7.70 | pIC50 (SF-268 [6]): 7.30 | pIC50 (MCF7 [7]): 8.00

CC(C)Cc1ccc(C(C)C(=O)O)cc1 (configuration not stated) [IBUPROFEN]
inhibition in vivo at 100 mg/kg (Rattus norvegicus): 31.3%

CC(=O)/C(=C\c1ccccc1O)C(=O)Nc1sc2c(c1C#N)CCCC2
pIC50 (MCF7 [10]): 7.70 | pIC50 (NCI-H460 [11]): 7.10 | pIC50 (SF-268 [12]): 7.22

COc1ccc(-c2sc3cc4c(cc3c2C(=O)c2cc(OC)c(OC)c(OC)c2)OCO4)cc1O
pIC50 (Tubulin): 4.40

O=S1(=O)C=C(Sc2nnc(-c3ccccc3)o2)c2ccccc21
MIC99 [9]: 3.1 µM (≈ 1.06 µg/mL)

O=c1c2ccccc2nc(-c2sc3ccccc3c2Cl)n1-c1ccc([N+](=O)[O-])cc1
zone of inhibition at 1000 µg/mL (Candida): 17 mm | zone of inhibition at 1000 µg/mL (Aspergillus niger): 10 mm

COc1ccc2c(C(O)c3ccc(OC)c(O)c3)c(-c3cc(OC)c(OC)c(OC)c3)sc2c1 (configuration not stated)
pIC50 (Tubulin): 5.21

O=C(CC(=O)C(F)(F)F)c1cccs1
Activity [13]: 102%

Cc1cccc(NNC(=O)Nc2sc3ccccc3c2Cl)c1
zone of inhibition at 40 µg/mL (Staphylococcus aureus [8]): 15 to 16 mm | zone of inhibition at 1000 µg/mL (Streptococcus pneumoniae): 16 mm

COc1ccc(-c2nnc(SC3=CS(=O)(=O)c4ccccc43)o2)cc1
MIC99 [9]: 7.2 µM (≈ 2.68 µg/mL)

O=c1c2c3c(sc2ncn1/N=C/c1ccccc1Cl)CCCC3
inhibition in vivo at 100 mg/kg (Rattus norvegicus): 28.2%

COc1ccc(NC(=O)Nc2sc3ccccc3c2Cl)cc1
zone of inhibition at 40 µg/mL (Staphylococcus aureus [8]): 15 to 16 mm

CCOC(=O)c1c(NC(=O)/C(C#N)=C(/S)Nc2ccccc2)sc2c1CCCC2
inhibition [1]: 57.1%

Cc1ccc(-c2nnc(SC3=CS(=O)(=O)c4ccccc43)o2)cc1
MIC99 [9]: 8.2 µM (≈ 2.92 µg/mL)

Clc1c(-c2nnc(CNc3ccccc3)o2)sc2ccccc12
zone of inhibition at 1000 µg/mL (Bacillus spizizenii): 15 mm

COc1ccc(-c2sc3cc(OC)ccc3c2C(=O)c2cc(OC)c(OC)c(OC)c2)cc1
pIC50 (Tubulin): 4.40

O=C(Nn1c(-c2ccccc2Cl)nc2ccccc2c1=O)c1sc2ccccc2c1Cl
MIC [2]: 6.25 mg/L (≈ 13.4 µM)

N#Cc1c(/N=C/C2C(N)=NN=C2O)sc2c1CCCC2 (configuration not stated)
pIC50 (NCI-H460 [5]): 8.00 | pIC50 (SF-268 [6]): 7.70 | pIC50 (MCF7 [7]): 7.70

N#Cc1c(/N=C/NNc2ccccc2)sc2c1CCCC2
pIC50 (NCI-H460 [5]): 7.52 | pIC50 (SF-268 [6]): 7.52 | pIC50 (MCF7 [7]): 7.52

N#Cc1c(/N=C/c2ccccc2)sc2c1CCCC2
pIC50 (NCI-H460 [5]): 8.00 | pIC50 (SF-268 [6]): 7.70 | pIC50 (MCF7 [7]): 7.70

O=C(CSc1nnc(-c2sc3ccccc3c2Cl)[nH]1)c1ccc(F)cc1
zone of inhibition at 1000 µg/mL (Bacillus spizizenii): 15 mm | zone of inhibition at 1000 µg/mL (Staphylococcus aureus [14]): 16 mm

CCOC(=O)c1c(-n2c(N)c(C#N)c(C)cc2=O)sc2c1CCCC2
pIC50 (MCF7 [10]): 8.00 | pIC50 (NCI-H460 [11]): 8.00 | pIC50 (SF-268 [12]): 7.10

N=C1c2c(sc3c2CCCC3)N=C(SCC(=O)c2ccccc2)C1C(=O)c1ccccc1 (configuration not stated)
pIC50 (NCI-H460 [5]): 7.70 | pIC50 (SF-268 [6]): 8.00 | pIC50 (MCF7 [7]): 8.00

COc1ccc(/C=C/C(=O)c2ccc(NC(=O)c3sc4ccccc4c3Cl)cc2)cc1
zone of inhibition at 1000 µg/mL (Bacillus spizizenii): 16 mm

CCOC(=O)c1c(NC(=O)/C(=N/Nc2ccc(Cl)cc2)C(C)=O)sc2c1CCCC2
pIC50 (MCF7 [10]): 8.00 | pIC50 (NCI-H460 [11]): 8.00 | pIC50 (SF-268 [12]): 7.10

COc1ccc(C2CC(c3ccc(NC(=O)c4sc5ccccc5c4Cl)cc3)=NO2)cc1 (configuration not stated)
zone of inhibition at 1000 µg/mL (Candida): 16 mm

Cc1cc2ccc(O)cc2n(NC(=O)c2sc3cc(F)ccc3c2N)c1=O
zone of inhibition at 1000 µg/mL (Bacillus spizizenii): 25 mm | zone of inhibition at 1000 µg/mL (Staphylococcus aureus [14]): 23 mm | zone of inhibition at 1000 µg/mL (Streptococcus pneumoniae): 22 mm

CCOC(=O)c1c(NC2=C(OC)C(=O)c3ccccc3C2=O)sc2c1CCCC2
inhibition [4]: 89.9%

O=C(c1ccsc1)c1cccs1
Activity [13]: 114%

O=c1c2ccccc2nc(-c2sc3ccccc3c2Cl)n1-c1ccc(F)cc1
zone of inhibition at 1000 µg/mL (Candida): 14 mm | zone of inhibition at 1000 µg/mL (Aspergillus niger): 17 mm

Cc1ccc(-n2c(S)nnc2NC(=O)c2sc3ccc(Cl)cc3c2Cl)cc1
MIC [2]: > 6.25 mg/L | growth inhibition (GI) [3]: 64%

O=S1(=O)C=C(Sc2nnc(-c3ccc(Cl)cc3)o2)c2ccccc21
MIC99 [9]: 3.9 µM (≈ 1.47 µg/mL)

COc1ccc(C2CC(c3ccc(NC(=O)c4sc5ccccc5c4Cl)cc3)=NN2)cc1 (configuration not stated)
zone of inhibition at 1000 µg/mL (Staphylococcus aureus [14]): 14 mm

O=C(NN1C(=O)/C(=C/c2ccccc2[N+](=O)[O-])N=C1c1ccccc1)c1sc2ccc(Cl)cc2c1Cl
MIC [2]: > 6.25 mg/L | growth inhibition (GI) [3]: 71%

CCOC(=N)n1cnc2c(sc3cc(F)ccc32)c1=O
zone of inhibition at 1000 µg/mL (Bacillus spizizenii): 24 mm | zone of inhibition at 40 µg/mL (Staphylococcus aureus [8]): 25 mm | zone of inhibition at 1000 µg/mL (Streptococcus pneumoniae): 25 mm

NNC1=Nc2sc3c(c2C(=O)C1C(=O)c1ccccc1)CCCC3 (configuration not stated)
pIC50 (NCI-H460 [5]): 7.70 | pIC50 (SF-268 [6]): 8.00 | pIC50 (MCF7 [7]): 7.52

O=C(Nc1ccc(C2=NN(c3ccc(F)cc3)C(c3ccccc3)C2)cc1)c1sc2ccccc2c1Cl (configuration not stated)
zone of inhibition at 1000 µg/mL (Bacillus spizizenii): 16 mm

COc1ccc(Nc2nnc(NC(=O)c3cc4cc(Oc5ccccc5)ccc4s3)s2)cc1
MIC [2]: > 6.25 mg/L | growth inhibition (GI) [3]: 90%

COc1ccccc1Nc1nnc(NC(=O)c2cc3cc(Oc4ccccc4)ccc3s2)s1
MIC [2]: > 6.25 mg/L | growth inhibition (GI) [3]: 60%

C[S+]([O-])CC(=O)c1cc2ccccc2s1 (configuration not stated)
Activity [13]: 121%

O=S1(=O)C=C(Sc2nc3ccccc3o2)c2ccccc21
MIC99 [9]: 5.7 µM (≈ 1.8 µg/mL)

COc1ccc2cc(/C=N/n3cnc4sc5c(c4c3=O)CCCC5)ccc2c1
inhibition in vivo at 100 mg/kg (Rattus norvegicus): 28.3%

COC1=C(Nc2sc3c(c2C(N)=O)CCCC3)C(=O)c2ccccc2C1=O
inhibition [4]: 96%

Reference: ChEMBL document CHEMBL4130365, “An overview of benzo[b]thiophene-based medicinal chemistry” (Eur J Med Chem, 2017)
